Cc1c(Br)cc(C(C)(C)C)c(O)c1C1=Nc2cc(Cl)ccc2S(=O)(=O)N1 [Example 1, 4-Bromo-6-tert-butyl-2-(6-chloro-1,1-dioxo-1,2-dihydro-1λ^6-benzo[1,2,4]thiadiazin-3-yl)-3-methylphenol]
melting point: 270 to 271 °C (dec.)
